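Tested at 5 concentrations; 48 h exposure; 96-well plates; endpoints linearly interpolated, else capped at highest concentration. GI50 is the concentration that inhibits growth by half.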 Activity calls are given as the source filed them. Rule as the data show it: active = GI50 up to about 1.1 µM and inactive = higher. Where only a bound is given, the exact number is not on record here.

What all share (assay): DTP human tumour cell line panel, 48 h
In experiment [1] the test system is A498.
For experiment [2], the system named is A549.
The test system of experiment [3] is EKVX.
The subject of experiment [4] is IGROV-1.
The test system of experiment [5] is K562.
Experiment [6] concerns KM12.
The test system of experiment [7] is M14.
The subject of experiment [8] is OVCAR-8.
The subject of experiment [9] is RPMI-8226.
For experiment [10], the system named is SF-295.
The test system of experiment [11] is SF-539.
The subject of experiment [12] is SK-MEL-5.
Experiment [13] concerns SN12C.
Experiment [14] deals with SNB-19.
In experiment [15] the test system is SNB-75.
Experiment [16] has as its system SW-620.
Experiment [17] concerns UACC-62.
Experiment [18] has as its system UO-31.
Experiment [19] has as its system SK-OV-3.
For experiment [20], the system named is T47D.

Usually GI50 stands for the concentration that inhibits growth by half. For `COc1cc(C(C)c2cc3c(cc2OCCN)OCO3)cc(OC)c1OC` (configuration not stated), the GI50 was > 100 µM (inactive) in experiment [1]; > 100 µM (inactive) in experiment [2]; 36.2 µM (inactive) in experiment [3]; > 100 µM (inactive) in [4]; > 100 µM (inactive) in [5]; 28.4 µM (inactive) in experiment [6]. Moreover, the GI50 was > 100 µM (inactive) in [7]; > 100 µM (inactive) in experiment [8]; 37.3 µM (inactive) in experiment [9]; > 100 µM (inactive) in experiment [10]; > 100 µM (inactive) in [11]; > 10 µM (inactive) in [12]. In addition, the GI50 is > 100 µM (inactive) in experiment [13]; 54.8 µM (inactive) in experiment [14]; 18.5 µM (inactive) in experiment [15]; > 100 µM (inactive) in experiment [16]; 35.5 µM (inactive) in experiment [17]; 50.8 µM (inactive) in experiment [18].

Take `CN(CCc1ccccn1)c1nc(=[N+](C)C)ss1`: the GI50 is > 100 µM (inactive) in experiment [1]; 35.3 µM (inactive) in experiment [2]; > 100 µM (inactive) in experiment [3]; > 100 µM (inactive) in experiment [4]; > 100 µM (inactive) in experiment [5]; 28.1 µM (inactive) in experiment [6]. Also, the GI50 is > 100 µM (inactive) in [7]; > 100 µM (inactive) in [8]; > 100 µM (inactive) in [9]; 56.1 µM (inactive) in experiment [10]; > 100 µM (inactive) in [11]; > 100 µM (inactive) in [12]. Also, the GI50 in experiment [19] is > 100 µM (inactive); in experiment [13], > 100 µM (inactive); in [14] it was > 100 µM (inactive); in experiment [15], > 100 µM (inactive); in experiment [16], > 100 µM (inactive); in experiment [17], 64.1 µM (inactive). Further, the GI50 in experiment [18] was > 100 µM (inactive).

As for `CCCCCCCCCC[C@@H](O)[C@@H]1CC[C@H]([C@H]2CC[C@@H]([C@@H](O)CCCCCCCCCC[C@H]3CC(CC(C)=O)C(=O)O3)O2)O1` (some centres not stated), the GI50 was 16.2 µM (inactive) in experiment [1]; 8.77 µM (inactive) in [2]; 7.16 µM (inactive) in experiment [3]; 12.8 µM (inactive) in experiment [4]; < 0.01 µM (active) in [5]; 11.8 µM (inactive) in experiment [7]. The GI50 in [8] was 8.47 µM (inactive); in [9] it was 1.01 µM (active); in [11] it was 10.8 µM (inactive); in experiment [12], < 0.01 µM (active); in experiment [19], 17.3 µM (inactive); in experiment [13] it was 10.3 µM (inactive). The GI50 in [14] was 10.4 µM (inactive); in [15], 12 µM (inactive); in experiment [16], 13.5 µM (inactive); in experiment [17] it was 10.7 µM (inactive); in experiment [18] it was 1.08 µM (active).

`C=CCN1C(=O)C(=O)N(CC=C)C(=O)C1=O`: the GI50 in experiment [1], in experiment [2], in experiment [3], in [4], in experiment [5] and in experiment [6] was > 100 µM (inactive) throughout. Further, the GI50 in experiment [7], in experiment [8], in [9], in experiment [10], in experiment [11] and in experiment [12] was > 100 µM (inactive) in each case. The GI50 in experiment [19], in [13], in experiment [14], in experiment [15], in experiment [16] and in experiment [17] was > 100 µM (inactive) throughout. For the same compound, in experiment [18], the GI50 is > 100 µM (inactive).

Consider `C/C(=N/NC(N)=S)C(CN(C)C)C(C1=C(O)c2ccccc2OC1)c1ccccc1` (configuration not stated), for which the GI50 in [1], in experiment [2], in [3], in experiment [4], in experiment [5] and in experiment [6] was > 100 µM (inactive) in each case. For the same compound, the GI50 in experiment [7], in [8], in experiment [9], in [10], in [11] and in [12] was > 100 µM (inactive) throughout. Further, the GI50 in experiment [19], in experiment [13], in [14], in experiment [15], in experiment [16] and in [17] was > 100 µM (inactive) in each case. The GI50 in experiment [18] is > 100 µM (inactive).

On to `COc1cc2c(cc1OCCCOc1cc3c(cc1OC)C(=O)N1CCC[C@H]1CN3)N=C[C@@H]1CCCN1C2=O`, for which the concentration for 50% growth inhibition (GI50) in [2] is 0.7 µM (active); in [3], 1.89 µM (inactive); in experiment [4], 0.201 µM (active); in experiment [5], 0.0482 µM (active); in experiment [6], 0.0893 µM (active); in experiment [7] it was 0.0753 µM (active). The GI50 was 0.232 µM (active) in experiment [8]; 0.123 µM (active) in experiment [10]; 0.024 µM (active) in [11]; 0.126 µM (active) in experiment [12]; 0.54 µM (active) in [19]; 0.189 µM (active) in [13]. The GI50 in experiment [14] is 0.0869 µM (active); in experiment [15], 0.179 µM (active); in experiment [16] it was 0.127 µM (active); in experiment [20], 0.0309 µM (active); in experiment [17] it was 0.1 µM (active); in [18], 2.17 µM (inactive).

For the compound `Cc1c(C(=O)C/C(=N\O)C(=O)Nc2cc(Cl)c(Cl)cc2Cl)[n+]([O-])c2ccccc2[n+]1[O-]`, the GI50 in [1] was 19.9 µM (inactive); in experiment [2] it was 25.6 µM (inactive); in experiment [3], 22.9 µM (inactive); in [4] it was 3.71 µM (inactive); in [5], 25.9 µM (inactive); in experiment [6], 11.1 µM (inactive). For the same compound, the GI50 was 4.5 µM (inactive) in experiment [7]; 8.91 µM (inactive) in experiment [8]; 9.33 µM (inactive) in experiment [9]; 25.9 µM (inactive) in [10]; 14.3 µM (inactive) in [11]; 5.47 µM (inactive) in experiment [12]. In addition, the GI50 is 43.7 µM (inactive) in experiment [19]; 4.83 µM (inactive) in experiment [13]; 36.1 µM (inactive) in [14]; 33.2 µM (inactive) in experiment [15]; 2.9 µM (inactive) in experiment [16]; 4.57 µM (inactive) in [17]. Moreover, in [18], the GI50 was 24.3 µM (inactive).

Regarding `Cc1cc(OC(=O)Nc2cccc3ccccc23)c(C(C)C)cc1C(=S)Nc1ccccc1`, the GI50 was 21.8 µM (inactive) in experiment [2]; 23.7 µM (inactive) in experiment [3]; 13.6 µM (inactive) in experiment [4]; 5.77 µM (inactive) in experiment [5]; 16.3 µM (inactive) in experiment [6]; 18.6 µM (inactive) in experiment [7]. For the same compound, the GI50 is 12.7 µM (inactive) in experiment [8]; 21.1 µM (inactive) in [9]; 0.0608 µM (active) in experiment [10]; 16.7 µM (inactive) in experiment [11]; 14.4 µM (inactive) in experiment [12]; 10.4 µM (inactive) in experiment [19]. In addition, the GI50 in experiment [14] was 27.2 µM (inactive); in [16] it was 16.8 µM (inactive); in experiment [20], 8.17 µM (inactive); in experiment [17] it was 12.5 µM (inactive); in experiment [18], 17.6 µM (inactive).

As to `CC/N=C(/C#N)NCC`, the GI50 in [1], in experiment [2], in experiment [3], in [4], in experiment [5] and in experiment [6] was > 100 µM (inactive) throughout. Moreover, the GI50 is > 100 µM (inactive) in [7]; > 100 µM (inactive) in experiment [8]; 30.4 µM (inactive) in experiment [9]; > 100 µM (inactive) in experiment [10]; > 100 µM (inactive) in experiment [11]; > 100 µM (inactive) in experiment [12]. In addition, the GI50 in experiment [19] was > 100 µM (inactive); in [13] it was > 100 µM (inactive); in [14], > 100 µM (inactive); in experiment [15], > 100 µM (inactive); in experiment [16] it was 18.7 µM (inactive); in experiment [17], > 100 µM (inactive). In addition, the GI50 in [18] was > 100 µM (inactive).

Take `COc1ccc(N2C(=O)C3c4[nH]c5ccc(OC)cc5c4C4CCC(C(C)(C)C)CC4C3C2=O)cc1` (configuration not stated): the GI50 in experiment [1] was 19.6 µM (inactive); in [2], 26.7 µM (inactive); in experiment [3] it was 24.7 µM (inactive); in experiment [4], 51.2 µM (inactive); in experiment [5] it was 23.1 µM (inactive); in experiment [6] it was 34.3 µM (inactive). Further, the GI50 was 19.9 µM (inactive) in [7]; 25 µM (inactive) in experiment [8]; 57.1 µM (inactive) in experiment [9]; 9.51 µM (inactive) in [10]; 12.8 µM (inactive) in experiment [11]; 21.1 µM (inactive) in [12]. Also, the GI50 in experiment [19] was 15.2 µM (inactive); in [13], 38.2 µM (inactive); in [14], 46.3 µM (inactive); in experiment [15] it was 12.3 µM (inactive); in experiment [16] it was 93.5 µM (inactive); in experiment [17] it was 27.2 µM (inactive). Further, the GI50 in experiment [18] was > 100 µM (inactive).

In the case of `COc1ccc(C2[C@@H](Cl)C(=O)N2c2ccc(OC)cc2)cc1` (some centres not stated), the GI50 in [1] is 12.2 µM (inactive); in [2] it was > 100 µM (inactive); in [3], > 100 µM (inactive); in experiment [4] it was > 100 µM (inactive); in experiment [5], 19.5 µM (inactive); in [6], > 100 µM (inactive). Besides, the GI50 in experiment [8] was 46.2 µM (inactive); in experiment [9] it was 98.6 µM (inactive); in [10], 28.7 µM (inactive); in experiment [11], 19.8 µM (inactive); in experiment [12], > 100 µM (inactive); in experiment [19], 23.1 µM (inactive). Moreover, the GI50 was > 100 µM (inactive) in [13]; 45.5 µM (inactive) in experiment [14]; 15.1 µM (inactive) in experiment [15]; > 100 µM (inactive) in [16]; 33.6 µM (inactive) in experiment [17]; 56.8 µM (inactive) in experiment [18].

The values are drawn from ChEMBL document CHEMBL1201862, “PubChem BioAssay data set” (2004).
